Source: ChEMBL document CHEMBL3885881, “DrugMatrix”

Species: Rattus norvegicus
Experiment: DrugMatrix - Regimen: Daily Repeat
Assay type: toxicity, organism-based, Sprague-Dawley
Parameters: regimen Daily Repeat, gender Male, age 6-8 weeks
Settings: in vivo, sc, 0.07 mg/kg, route subcutaneous, dose level Low, […]; for ABSOLUTE BASOPHIL / ABSOLUTE EOSINOPHIL / ABSOLUTE LYMPHOCYTE / ABSOLUTE MONOCYTE / ABSOLUTE SEGMENTED NEUTROPHIL / BASOPHIL / EOSINOPHIL / ERYTHROCYTE COUNT / HEMATOCRIT / HEMOGLOBIN / LEUKOCYTE COUNT / LYMPHOCYTE / MEAN CORPUSCULAR HEMOGLOBIN / MEAN CORPUSCULAR HEMOGLOBIN CONCENTRATION / MEAN CORPUSCULAR VOLUME / MONOCYTE / NEUTROPHIL / NUCLEATED RED BLOOD CELLS / PLATELET COUNT: tissue Blood; for ALANINE AMINOTRANSFERASE / ALBUMIN / ALKALINE PHOSPHATASE / ASPARTATE AMINOTRANSFERASE / BLOOD UREA NITROGEN / CARBON DIOXIDE / CHLORIDE / CHOLESTEROL / CREATINE PHOSPHOKINASE / CREATININE / GLUCOSE / LACTATE DEHYDROGENASE / LIPASE / PHOSPHORUS / POTASSIUM / SODIUM / TOTAL BILIRUBIN / TOTAL PROTEIN / URIC ACID: tissue Plasma

## CC1(C)O[C@@H]2C[C@H]3[C@@H]4C[C@H](F)C5=CC(=O)C=C[C@]5(C)[C@@]4(F)[C@@H](O)C[C@]3(C)[C@]2(C(=O)CO)O1 [FLUOCINOLONE ACETONIDE]
72 h, time 3 day
  ABSOLUTE BASOPHIL: 0 CELLS/uL
  ABSOLUTE EOSINOPHIL: 53 CELLS/uL
  ABSOLUTE LYMPHOCYTE: 3882.67 CELLS/uL
  ABSOLUTE MONOCYTE: 130 CELLS/uL
  ABSOLUTE SEGMENTED NEUTROPHIL: 1667.67 CELLS/uL
  BASOPHIL: 0%
  EOSINOPHIL: 1%
  ERYTHROCYTE COUNT: 5.77 x10E6/uL
  HEMATOCRIT: 37.27%
  HEMOGLOBIN: 13.5 G/DL
  LEUKOCYTE COUNT: 5.73 x10E3/uL
  LYMPHOCYTE: 66%
  MEAN CORPUSCULAR HEMOGLOBIN: 23.4 pg
  MEAN CORPUSCULAR HEMOGLOBIN CONCENTRATION: 36.23 G/DL
  MEAN CORPUSCULAR VOLUME: 64.67 fL
  MONOCYTE: 2.33%
  NEUTROPHIL: 30.67%
  NUCLEATED RED BLOOD CELLS: 0.67 /100WBC
  PLATELET COUNT: 1436 x10E3/uL
  ALANINE AMINOTRANSFERASE: 77.67 u/L
  ALBUMIN: 5.23 G/DL
  ALKALINE PHOSPHATASE: 414.67 u/L
  ASPARTATE AMINOTRANSFERASE: 135.67 u/L
  BLOOD UREA NITROGEN: 21.33 mg/dL
  CARBON DIOXIDE: 24.33 mmol/L
  CHLORIDE: 102 MEQ/L
  CHOLESTEROL: 107 mg/dL
  CREATINE PHOSPHOKINASE: 290 u/L
  CREATININE: 0.31 mg/dL
  GLUCOSE: 275.67 mg/dL
  LACTATE DEHYDROGENASE: 425.33 u/L
  LIPASE: 10.67 u/L
  PHOSPHORUS: 13.03 mg/dL
  POTASSIUM: 5.79 MEQ/L
  SODIUM: 145.07 MEQ/L
  TOTAL BILIRUBIN: 0.27 mg/dL
  TOTAL PROTEIN: 7.07 G/DL
  URIC ACID: 1.47 mg/dL
120 h, time 5 day
  ABSOLUTE BASOPHIL: 0 CELLS/uL
  ABSOLUTE EOSINOPHIL: 0 CELLS/uL
  ABSOLUTE LYMPHOCYTE: 1551.33 CELLS/uL
  ABSOLUTE MONOCYTE: 16 CELLS/uL
  ABSOLUTE SEGMENTED NEUTROPHIL: 3699.33 CELLS/uL
  BASOPHIL: 0%
  EOSINOPHIL: 0%
  ERYTHROCYTE COUNT: 6.67 x10E6/uL
  HEMATOCRIT: 40.23%
  HEMOGLOBIN: 14.73 G/DL
  LEUKOCYTE COUNT: 5.27 x10E3/uL
  LYMPHOCYTE: 32%
  MEAN CORPUSCULAR HEMOGLOBIN: 22.1 pg
  MEAN CORPUSCULAR HEMOGLOBIN CONCENTRATION: 36.6 G/DL
  MEAN CORPUSCULAR VOLUME: 60.37 fL
  MONOCYTE: 0.33%
  NEUTROPHIL: 67.67%
  NUCLEATED RED BLOOD CELLS: 1 /100WBC
  PLATELET COUNT: 1631 x10E3/uL
  ALANINE AMINOTRANSFERASE: 131 u/L
  ALBUMIN: 4.93 G/DL
  ALKALINE PHOSPHATASE: 313 u/L
  ASPARTATE AMINOTRANSFERASE: 231.67 u/L
  BLOOD UREA NITROGEN: 20.33 mg/dL
  CARBON DIOXIDE: 24 mmol/L
  CHLORIDE: 102.33 MEQ/L
  CHOLESTEROL: 92.33 mg/dL
  CREATINE PHOSPHOKINASE: 1505.67 u/L
  CREATININE: 0.26 mg/dL
  GLUCOSE: 389.33 mg/dL
  LACTATE DEHYDROGENASE: 225 u/L
  LIPASE: 10 u/L
  PHOSPHORUS: 13.57 mg/dL
  POTASSIUM: 5.94 MEQ/L
  SODIUM: 147.93 MEQ/L
  TOTAL BILIRUBIN: 0.2 mg/dL
  TOTAL PROTEIN: 6.7 G/DL
  URIC ACID: 2.67 mg/dL
